Assay results published in patent US6766183B2, “Long wave fluorophore sensor compounds and other fluorescent sensor compounds in polymers” (Medtronic MiniMed, Inc., priority 1995, dated 2004).

Tests used:
[1] = Glucose transduction of Nile Blue boronate: fluorescence in DMSO/PBS, ex 621 nm, em 671 nm; conditions: for fluorescent intensity increase at 671 nm: ex 621 nm, relative to blank, listed as 1; for fluorescent intensity increase at 671 nm / increase in fluorescent intensity at 671 nm: DMSO/PBS; for increase in fluorescent intensity at 671 nm: separate batch
Protocol: A typical embodiment of the invention uses Nile Blue as an illustrative oxazine-based fluorophore.
Results: After work-up, the reaction was concentrated to dryness. A sample of the blue residue (˜1 mg), dissolved in DMSO (1 ml), was aliquoted (100 □ L) and dissolved in PBS (20 mL). […] A control fluorescence experiment was performed containing Nile Blue A using the same conditions as mentioned above.
(§1) To a round bottom flask, equipped with a reflux condenser under N2, containing Nile Blue perchlorate salt (42 mg, 0.1 mmol), boronate (28 mg, 0.1 mmoles) and K2CO3 (˜1 g) was added CH3CN (25 mL). The reaction was heated at reflux for 24 hours after which the solvent evaporated and the reaction went to dryness. The sample of the reaction mixture (1 mg, 2.21 mole) was dissolved in DMSO (1 mL). An aliquot (100 μL) was dissolved in PBS (20 mL). A sample of this solution (3 mL) was placed into the fluorolog and fluorescent measurements were made (ex=621 nm, slits at 10 and 20) at various glucose concentrations (0 mg/dL, 150 mg/dL, 300 mg/dL and 450 mg/dL) with a sampling interval of 45 min.
as §1, with “(22” for “(28”, “The reaction was heated at reflux for 24 hours after which the solvent evaporated and the reaction went to dryness.” left out, “[…])” for “mole)”
as §1, with “[…])” for “mole)”

Water solubility = assay type: physicochemical
Description: Exemplary long wavelength glucose-sensing molecule containing an oxazine (Nile Blue) coupled with a phenyl boronate suitable for detection of glucose, following polymer incorporation, in vivo is shown in FIGS. 2 and 3. FIG. 2 provides a comparison of fluorescent excitations of representative fluorophores including the oxazine Nile Blue. The excitation and emission profile of anthracene based compounds are well below that of Nile Blue's fluorescent profile (see, e.g., FIG. 3). […] It is feasible to substitute other oxazines of similar structure for Nile Blue.

[2] = Glucose transduction in PBS, relative fluorescent intensity (FIG. 18 format)
Protocol: FIG. 18 is a graph showing Nile Blue boronate's transduction of glucose in PBS.
The figures provided herein further illustrate various embodiments of the invention and their properties in order to further facilitate artisans' making and using the invention. For example, using the graphic format provided in FIG. 18, experiments confirming properties of Nile Blue were performed with the following results: […]

[3] = Fluorescence excitation and emission wavelengths; assay type: physicochemical; conditions: aqueous PBS; for maximum emission wavelength: irradiated at 621 nm
Description: An exemplary oxazine-based biosensor molecule of the present invention utilizes Nile blue as the fluorophore as shown in FIG. 2. The Nile blue-based biosensor molecule has an excitation wavelength of about 625 nm and a maximum emission wavelength of about 675 nm (see, e.g. FIGS. 8). Similar oxazine-based fluorophores suitable for use in embodiments of the present invention may include one or more functional groups selected from the following: aliphatic, aromatic, haloalkane, alcohol, ether, amine, cyano, nitro group, aldehyde, ketone, ester, carboxylic acid, sulfonic acid and phosphoric acid functional groups.
As illustrated above, the oxazine-based molecules in accordance with embodiments of the invention solve the problem of obtaining optimal optical transmission of fluorescence via implanted fluorescent reporter systems of in-vivo polyhydroxylate analyte concentrations. […] Particular embodiments of the biosensor molecules of the invention have at least one maximum wavelength in their emission spectra that is greater than about 600 nm and have at least one wavelength in their emission spectra that is greater than about 650 nm. An exemplary oxazine-based biosensor molecule in accordance with embodiments of the invention utilizes Nile Blue as a fluorophore. This Nile Blue biosensor molecule generally has an excitation wavelength of about 625 nm and an emission wavelength of about 675 nm in an aqueous Phosphate Buffered Saline (PBS) solution. Particular embodiments of the invention, however, may emit in the near infrared (IR) region of the spectrum.
Results: After work-up, the reaction was concentrated to dryness. A sample of the blue residue (˜1 mg), dissolved in DMSO (1 ml), was aliquoted (100 □ L) and dissolved in PBS (20 mL). A sample PBS solution (3 mL) contained in a cuvette and irradiated at 621 nm, gave rise to the appearance of a maximum emission peak at 671 nm. Successive additions of glucose (150 mg/dL), added to the cuvette, led to an increase in […] intensity, at 671 nm, after each addition. The first addition of glucose gave rise to a 7.5% increase in fluorescence at 671 nm. After the second addition of glucose, the intensity rose 14.3% relative to the blank. Addition of the third aliquot of glucose gave an 18.8% rise in fluorescent intensity relative to the blank. […] A control fluorescence experiment was performed containing Nile Blue A using the same conditions as mentioned above.

Question: For `CC[N+](CC)=c1ccc2nc3c(cc(N)c4ccccc43)oc-2c1` [Nile Blue, Nile Blue A, reference compound], which “glucose transduction (control experiment)” value ([1]; DMSO/PBS solutions, same conditions as the boronate) is on record?
Answer: incapable of transducing glucose

Question: What about the solubility in water (Water solubility) of the same compound?
Answer: highly soluble in water

Question: For Nile Blue A, which relative fluorescent intensity ([2]; glucose 0 mg/dl) is on record?
Answer: 1.0

Question: And the relative fluorescent intensity ([2]; glucose 150 mg/dl)?
Answer: 1.085

Question: What about the relative fluorescent intensity ([2]; glucose 300 mg/dl) of the same compound?
Answer: 1.239

Question: What about the relative fluorescent intensity ([2]; glucose 450 mg/dl) of the same compound?
Answer: 1.398

Question: And the relative fluorescent intensity ([2]; glucose 1000 mg/dl)?
Answer: 1.513

Question: Which results are given for Nile Blue Boronate?
Answer: fluorescent intensity increase at 671 nm ([1]; glucose 150 mg/dL): 7.5%; fluorescent intensity increase at 671 nm ([1]; glucose 300 mg/dL): 14.3%; fluorescent intensity increase at 671 nm ([1]; glucose 450 mg/dL): 18.8%; glucose transduction ([1]; in water): transduces glucose exceptionally well; increase in fluorescent intensity at 671 nm ([1]; glucose 150 mg/dL (first addition)): 23.4%; increase in fluorescent intensity at 671 nm ([1]; glucose 300 mg/dL (second addition)): 37.8%; increase in fluorescent intensity at 671 nm ([1]; glucose 450 mg/dL (third addition)): 47.4%; excitation wavelength [3]: about 625 nm; maximum emission wavelength ([3]; listed as 1): 671 nm; maximum emission wavelength ([3]; listed as Nile Blue biosensor molecule): about 675 nm; maximum emission wavelength ([3]; listed as Nile blue-based biosensor molecule): about 675 nm
